Molecules are shown by their SMILES.

Data on 54 compounds can be found in US8895599B2, “Lipoprotein lipase-activating compositions comprising benzene derivates” (Otsuka Pharmaceutical Factory, Inc., priority 2008, dated 2014).

Turning to `COc1cc(-c2cn3cc(C(=O)O)ccc3n2)ccc1OCc1ccc(C#N)cc1` [Example 44], the melting point (as a rule, the temperature of the solid-liquid transition) is 242 to 243 °C. In the case of `COc1cc(-c2cn3ccsc3n2)ccc1OCc1ccc(Br)cc1` [Example 42] it was 134 to 136 °C; in that of `CCCOc1cc(-c2cn3ccccc3n2)ccc1OCc1ccccc1` [Example 61], 126 to 127 °C; in that of `COc1ccc(COc2ccc(-c3cn4ccccc4n3)cc2OC)cc1` [Example 35], 165 to 167 °C. In the case of `COc1ccc(COc2ccc(-c3cn4ccccc4n3)cc2)cc1` [Example 36] it was 215 to 218 °C.

The compound `COc1cc(-c2c[nH]c(-c3ccccc3)n2)ccc1OCc1ccccc1` [Example 79] returned a melting point of 190 to 192 °C.

As to `COc1cc(-c2cn3ccccc3n2)ccc1OCc1cc(F)ccc1F` [Example 94], the melting point fell in the range of 115 to 117 °C. `COc1cc(-c2cn3cccc(C)c3n2)ccc1OCc1ccc(Cl)cc1` [Example 73] returned a melting point of 132 to 133 °C. Consider `COc1cc(-c2nc3ccccn3c2Cl)ccc1OCc1ccc(Cl)cc1` [Example 19], for which the melting point lay in the range of 139 to 140 °C.

For the compound `COc1cc(-c2cn3cc(C)ccc3n2)ccc1OCc1ccc(Br)cc1` [Example 56], the melting point was in the range of 155 to 157 °C.

For `COc1cc(-c2cn3ccccc3n2)ccc1OCc1ccc(C)cc1` [Example 9], the melting point was in the range of 155 to 157 °C. In the case of `COc1cc(-c2cn3ccccc3n2)ccc1OCc1ccc(C(F)(F)F)cc1` [Example 7] it was 172 to 173 °C; in that of `COc1cc(-c2cn3cc(C)ccc3n2)ccc1OCc1ccc(Cl)cc1` [Example 32], 140 to 142 °C; in that of `COc1cc(-c2cn3cc(Br)cc(C)c3n2)ccc1OCc1ccc(C#N)cc1` [Example 99], 177 to 178 °C. For the compound `COc1cc(-c2cn3cccc(OCc4ccccc4)c3n2)ccc1OCc1ccc(Cl)cc1` [Example 75], the melting point lay in the range of 164 to 166 °C. In the case of `CCOc1cc(-c2cn3ccccc3n2)ccc1OCc1ccccc1` [Example 60] it was 157 to 158 °C; in that of `COc1cc(-c2cn3cccc(OCc4ccccc4)c3n2)ccc1OCc1ccc(Br)cc1F` [Example 87], 108 to 109 °C; in that of `COc1cc(-c2cn3cc(Br)cc(C)c3n2)ccc1OCc1ccccc1` [Example 98], 164 to 165 °C. Compound `COc1cc(-c2cnc3ccccn23)ccc1OCc1ccc(F)cc1` [Example 133] came in with a melting point of 118 to 119 °C.

On to `COc1cc(-c2cccc3nccn23)ccc1OCc1ccc(C#N)cc1` [Example 120], for which the melting point is 155 to 157 °C. The compound `COc1cc(-c2cn3cc(Br)c(C)c(C)c3n2)ccc1OCc1ccc(C#N)cc1` [Example 101] came in with a melting point of 180 to 181 °C. `COc1cc(-c2cn3ccccc3n2)ccc1OCc1ccc(F)cc1` [Example 6] had a melting point of 144 to 146 °C. `Oc1cc(-c2cn3ccccc3n2)ccc1OCc1ccc(Cl)cc1` [Example 67]: the melting point lay within 206 to 208 °C. In the case of `COc1cc(-c2cn3ccsc3n2)ccc1OCc1ccccc1` [Example 24] it was 130 to 132 °C; in that of `COC(=O)c1ccc2nc(-c3ccc(OCc4ccc(Cl)cc4)c(OC)c3)cn2c1` [Example 46], 182 to 183 °C.

`COc1cc(-c2cn3cccc(OC)c3n2)ccc1OCc1ccccc1` [Example 88] yielded a melting point of 189 to 191 °C.

For `COc1cc(-c2cn3cc(C)sc3n2)ccc1OCc1ccc(Cl)cc1` [Example 43], the melting point fell in the range of 156 to 158 °C. In the case of `COc1cc(-c2cn3cc(Cl)cc(Cl)c3n2)ccc1OCc1ccccc1` [Example 52] it was 163 to 165 °C; in that of `COc1cc(-c2nc3ccccn3c2Cl)ccc1OCc1cccc(F)c1` [Example 20], 104 to 105 °C; in that of `COc1cc(-c2cnc3ccccn23)ccc1OCc1ccc(C#N)cc1` [Example 108], 148 to 149 °C. In the case of `COc1cc(-c2cn3cc(C(=O)O)ccc3n2)ccc1OCc1ccc(Cl)cc1` [Example 45] it was 251 to 253 °C.

Compound `c1ccc(Oc2ccc(-c3cn4ccccc4n3)cc2)cc1` [Example 72] came in with a melting point of 164 to 165 °C. Turning to `COc1cc(-c2nc3ccccn3c2C)ccc1OCc1ccccc1.Cl`, the melting point lay in the range of 241 to 243 °C. In the case of `COc1cc(-c2cn3ccccc3n2)ccc1OCc1cccc(Cl)c1` [Example 21] it was 114 to 115 °C; in that of `COc1cc(-c2cn3cccc(OCc4ccccc4)c3n2)ccc1OCc1ccc(C#N)cc1` [Example 86], 169 to 170 °C; in that of `c1ccc(COc2ccc(-c3cn4ccccc4n3)cc2OCc2ccccc2)cc1` [Example 62], 122 to 124 °C. In the case of `COc1cc(-c2cccc3nccn23)ccc1OCc1ccccc1` [Example 116] it was 164 to 166 °C.

The compound `COc1cc(-c2nc3sccn3c2C)ccc1OCc1ccccc1.Cl` yielded a melting point of 228 to 230 °C. As for `COc1cc(-c2cn3cccnc3n2)ccc1OCc1ccc(Cl)cc1` [Example 29], the melting point was in the range of 216 to 218 °C. In the case of `COc1cc(-c2cn3cc(C)ccc3n2)ccc1OCc1ccccc1` [Example 15] it was 135 to 136 °C; in that of `COC(=O)c1ccc(COc2ccc(-c3cn4ccccc4n3)cc2OC)cc1` [Example 50], 125 to 126 °C. In the case of `COc1cc(-c2nc3ccccn3c2Br)ccc1OCc1ccccc1` [Example 3] it was 115 to 117 °C. In the case of `COC(=O)c1cc(-c2cn3ccccc3n2)ccc1OCc1ccccc1` [Example 47] it was 179 to 181 °C; in that of `COc1cc(-c2cn3cccc(OCc4ccccc4)c3n2)ccc1OCc1ccccc1` [Example 55], 140 to 141 °C.

Compound `COc1cc(-c2cn3cc(C(F)(F)F)cc(Cl)c3n2)ccc1OCc1ccccc1` [Example 53] showed a melting point of 155 to 156 °C.

Compound `COc1cc(-c2nc3ccccc3s2)ccc1OCc1ccccc1` [Example 78, 2-(4-benzyloxy-3-methoxyphenyl)benzothiazole] registered a melting point of 108 to 109 °C. In turn, `COc1cc(-c2cn3ccccc3n2)cc(OC)c1OCc1ccccc1` [Example 41] returned a melting point of 154 to 155 °C. In the case of `COc1cc(-c2cn3ccccc3n2)ccc1OCc1ccc(F)cc1F` [Example 93] it was 137 to 138 °C; in that of `COc1cc(-c2cn3ccccc3n2)ccc1OCc1ccc(Cl)cc1Cl` [Example 92], 138 to 139 °C; in that of `COc1cc(-c2cn3cccc(O)c3n2)ccc1OCc1ccccc1` [Example 54], 187 to 189 °C.

Turning to `COc1cc(-c2cn3ccccc3n2)ccc1OCc1c(F)cccc1F` [Example 104], the melting point is 136 to 137 °C. In the case of `COc1cc(-c2cnc3ccccn23)ccc1OCc1ccc(C(F)(F)F)cc1` [Example 122] it was 133 to 135 °C. Turning to `COc1cc(-c2nc3ccccn3c2C)ccc1OCc1ccc(C)cc1` [Example 27], the melting point was in the range of 118 to 120 °C. `COc1cc(-c2cn3cccc(O)c3n2)ccc1OCc1ccc(Cl)cc1` [Example 90]: the melting point was in the range of 220 to 222 °C.
